Experimental data: patent US12534436B2, “Disubstituted adamantyl derivative or pharmaceutically acceptable salt thereof, and pharmaceutical composition for suppressing cancer growth comprising same as active ingredient” (ONECUREGEN CO., LTD., priority 2020, dated 2026)

Assays:
various cancer cells = experiment: Cell viability by methylene blue colorimetric assay, various cancer cells; assay type: cell-based; conditions: Homo sapiens; range over the cancer cell lines, methylene blue assay (FIG. 1B); read-out: GI50, proliferation of various cancer cells
Method: (§1) Among the newly synthesized adamantyl compounds, it was evaluated how compound 21c (LW1564, Compound 21-3), FIG. 1A) affected proliferation suppression of various cancer cells. Human breast cancer cells (MCF7), human cervical cancer cells (HeLa), human colorectal cancer cells (HCT116, HCT15, LoVo, SW480, SW620 and WiDr), human fibrosarcoma cells (HT1080), human gastric cancer cells (NCI-N87, NUGC3 and SNU484), human liver cancer cells (HepG2, HT17, Huh7, SHJ1 and SK-Hep1), human lung cancer cells (A549 and H1299), human pancreatic cancer cells (AsPC1 and MIA-PaCa2) and normal lung fibroblasts (CCD-34Lu and WI-38) were purchased from the American Type Culture Collection (Manassas, Virginia, USA) or KRIBB Cell Line Bank (Daejeon). For cell culture, cells were cultured in a DMEM medium (Gibco, Grand Island, New York, USA) supplemented with 5% (v/v) fetal bovine serum (WelGENE, Daegu, Korea) and 100 U/ml penicillin and 100 μg/ml streptomycin (Gibco). Cells were maintained at 37° C. in a humidified incubator with 5% CO2, and hypoxia and a multi-gas incubator (Sanyo, Osaka, Japan) was adjusted to 1% O2, 94% N2 and 5% CO2. Cell viability was determined by methylene blue colorimetric assay as described in the “Chou, T. C. […] The dye was eluted with 0.1% HCl (v/v) and quantified at 600 nm on a Molecular Devices EMax (Molecular Devices, CA, USA). […]

[1] = tested on: CCD-34Lu normal lung fibroblasts; experiment: Cell viability by methylene blue colorimetric assay, normal cells CCD-34Lu; assay type: cell-based; conditions: Homo sapiens, Fibroblast; methylene blue assay (FIG. 1B); read-out: GI50, growth of normal cells CCD-34Lu
Method: as §1

[2] = tested on: WI-38 normal lung fibroblasts; experiment: Cell viability by methylene blue colorimetric assay, normal cells WI-38; assay type: cell-based; conditions: Homo sapiens, methylene blue assay (FIG. 1B), read-out: GI50, growth of normal cells WI-38
Method: as §1

HIF-1α = experiment: Western blot of HIF-1α accumulation in HepG2 cells; assay type: cell-based, human
[3] = tested on: mitochondrial respiration; experiment: Oxygen consumption rate (OCR), Oxytherm Clark-type electrode, HepG2 cells; assay type: cell-based, human; conditions: 2 μM, 6 hours (FIG. 3A)
Method: (§2) Compounds that suppress mitochondrial respiration promote degradation of HIF-1α by increasing cellular oxygen content. Accordingly, it was investigated whether LW1564 (compound 21-3) affected mitochondrial respiration by measuring the oxygen consumption rate (OCR). Oxygen consumption was measured using an Oxytherm Clark-type electrode system (Hansatech, Norfolk, UK) (Chou, T. C. Theoretical basis, experimental design, and computerized simulation of synergism and antagonism in drug combination studies. Pharmacol. Rev. 58, 621-681 (2006)). HepG2 cells (2×10^7) were cultured with 2 μM LW1564 (compound 21-3) for 6 hours, collected, and then OCR was measured at 37° C. for 5 minutes with a thermoregulated controlled circulating system. For […] studies, digitonin-permeabilised HepG2 cells (2×10^7) were read on a detection device containing 2 ml of respiratory buffer (0.25 M sucrose, 2 mM KH2PO4, 5 mM MgCl2, 1 mM EDTA, 1 mM ADP, 20 mM MOPS, pH 7.4). The following substrates, which provide electrons to the components in the ETC, were then added: 5 mM sodium pyruvate, 5 mM sodium malate, 5 mM sodium succinate, 5 mM L-ascorbic acid and 0.2 mM N,N,N,N-tetra methyl-p-phenylenediamine (TMPD). Complex I, III and IV inhibitors (rotenone, antimycin A and KCN, respectively) were added to a final concentration of 1 μM.

intracellular oxygen = experiment: Intracellular oxygen with hypoxia probe MAR, HepG2 cells; assay type: cell-based, human; conditions: hypoxic conditions, 6 hours, 500 nM MAR (FIG. 3D)
Method: Since a decrease in mitochondrial respiration means an increase in the amount of intracellular oxygen, it was evaluated whether the amount of intracellular oxygen increased using MAR, an azo-based hypoxia probe that produces fluorescence under hypoxic conditions. Under hypoxic states, HepG2 cells were cultured with LW1564 (compound 21-3) for 6 hours, stained with 500 nM MAR according to the manufacturer's instructions (Chou, T. C. Theoretical basis, experimental design, and computerized simulation of synergism and antagonism in drug combination studies. Pharmacol. Rev. 58, 621-681 (2006)), and analyzed with an IncuCyte ZOOM® system (Essen BioScience, MI, USA).

Complex II/III = experiment: Mitochondrial respiration assay, complex II/III (succinate); assay type: cell-based, human; conditions: HepG2 cells (FIG. 4C)
Method: as §2, with “μM. […]” for “μM.”

Complex IV = experiment: Mitochondrial respiration assay, complex IV (ascorbate/TMPD); assay type: cell-based, human; conditions: HepG2 cells (FIG. 4D)
Method: as §2, with “μM. […]” for “μM.”

AMPK signaling = experiment: Western blot of AMPK/mTOR signaling in HepG2 cells; assay type: cell-based, human
lipid synthesis = experiment: Nile red staining of lipid accumulation in HepG2 cells; assay type: cell-based, human; conditions: 24 hours (FIG. 5B)
Method: In order to explore this possibility, the effect of LW1564 (compounds 21-3) on lipid synthesis using Nile red, a fluorescent probe that binds to hydrophobic molecules such as lipid droplets was evaluated. Nile red staining was performed as described in “1. Huang, D. et al. HIF-1-mediated suppression of acyl-CoA dehydrogenases and fatty acid oxidation is critical for cancer progression. Cell Rep. 8, 1930-1942 (2014).” HepG2 cells were treated with LW1564 (compound 21-3) for 24 hours and then stained with 200 nM Nile Red and 1 μM Calcein AM for 10 minutes. Data were collected and analyzed with an IncuCyte ZOOM® system (Essen BioScience). For normalization, cell viability was measured using a cell-permeant fluorescent dye, Calcein AM.

## COc1cc2c(cc1OC)CN(C(=O)C13CC4CC(C1)CC(c1ccc(OCC(=O)N5CCN(Cc6ccc(C(F)(F)F)cc6)CC5)cc1)(C4)C3)CC2 [Compound 21c, 2-(4-(3-(6,7-Dimethoxy-1,2,3,4-tetrahydroisoquinoline-2-carbonyl)adamantan-1-yl)phenoxy)-1-(4-(4-(trifluoromethyl)benzyl)piperazin-1-yl) ethanone]
Various cancer cells
  GI50: 0.4 to 4.6 µM
[1]
  GI50: > 20 µM
[2]
  GI50: > 20 µM
HIF-1α; Western blot, cobalt chloride (FIG. 2B)
  HIF-1α protein amount in the presence of cobalt chloride: did not affect HIF-la protein amount
HIF-1α; hypoxic conditions (FIG. 2B)
  accumulation of HIF-1α: suppressed the accumulation of HIF-1α in a concentration-dependent manner
[3]
  oxygen consumption rate (OCR): significantly suppressed OCR
Intracellular oxygen
  MAR fluorescence (hypoxia probe): significantly reduced fluorescence
Complex II/III
  oxygen consumption rate in the presence of succinate: did not affect the oxygen consumption rate
Complex IV
  oxygen consumption rate in the presence of ascorbate/TMPD: did not affect the oxygen consumption rate
AMPK signaling; concentration-dependent (FIG. 5A)
  phosphorylation of mTOR: suppressed phosphorylation of mTOR
AMPK signaling; western blot (FIG. 5A)
  phosphorylation of AMPK and ACC: promoted phosphorylation of AMPK and its downstream protein, Acetyl-CoA carboxylase (ACC)
Lipid synthesis
  lipid accumulation (Nile red): reduced lipid accumulation in a concentration-dependent manner
